17 compounds from patent US10245261B2, “Substituted indol-5-ol derivatives and their therapeutic applications” (NantBioScience, Inc., priority 2013, dated 2019) can be followed below.

Structures are written as SMILES.

What all share (test): KinaseProfiler kinase assay
Assay type in all cases: biochemical

One test addresses KDR(h) (Homo sapiens, UniProt P35968).
The next test addresses Abl(h) (Homo sapiens, UniProt P00519).
Another test deals with T1, Flt3(h) (Homo sapiens, UniProt P36888).
T1 sequence (P36888 27-993): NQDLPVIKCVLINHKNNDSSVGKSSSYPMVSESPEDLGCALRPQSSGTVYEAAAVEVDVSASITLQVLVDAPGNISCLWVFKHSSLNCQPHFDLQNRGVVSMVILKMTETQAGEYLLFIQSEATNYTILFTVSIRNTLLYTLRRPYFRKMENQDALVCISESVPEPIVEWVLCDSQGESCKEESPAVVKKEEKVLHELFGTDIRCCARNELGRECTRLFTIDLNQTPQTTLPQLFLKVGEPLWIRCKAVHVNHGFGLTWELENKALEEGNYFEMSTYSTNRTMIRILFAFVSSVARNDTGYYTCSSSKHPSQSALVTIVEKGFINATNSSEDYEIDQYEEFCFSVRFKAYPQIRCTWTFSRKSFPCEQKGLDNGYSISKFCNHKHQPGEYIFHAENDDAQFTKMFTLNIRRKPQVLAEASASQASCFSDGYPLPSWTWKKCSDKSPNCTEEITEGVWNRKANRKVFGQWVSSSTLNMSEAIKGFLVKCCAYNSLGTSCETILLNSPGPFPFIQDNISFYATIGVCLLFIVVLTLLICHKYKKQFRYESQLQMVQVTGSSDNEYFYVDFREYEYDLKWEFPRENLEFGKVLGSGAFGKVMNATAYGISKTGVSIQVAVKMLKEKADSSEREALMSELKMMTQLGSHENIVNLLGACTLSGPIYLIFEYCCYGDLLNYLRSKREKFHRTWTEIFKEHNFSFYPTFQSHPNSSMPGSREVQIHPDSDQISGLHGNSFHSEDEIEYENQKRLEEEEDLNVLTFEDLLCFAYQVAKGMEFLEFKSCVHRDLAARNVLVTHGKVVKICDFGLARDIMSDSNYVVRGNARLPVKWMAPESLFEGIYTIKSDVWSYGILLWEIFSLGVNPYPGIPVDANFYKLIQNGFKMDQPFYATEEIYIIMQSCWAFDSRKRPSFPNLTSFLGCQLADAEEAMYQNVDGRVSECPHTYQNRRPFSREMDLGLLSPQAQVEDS
The protocol: (§1) This example tests the inhibitory properties of representative compounds of the invention in c-Src kinase, Aurora-A kinase, Flt3 kinase, Ret kinase and TrkA Kinase assays (see, Daniele Fancelli et al, J. Med. Chem., 2006, 49 (24), pp 7247-7251). The KinaseProfiler™ Service Assay Protocols (Millipore) was used to test the kinase inhibiting activity of novel compounds from this invention. To do this, the buffer composition was as: 20 mM MOPS, 1 mM EDTA, 0.01% Brij-35, 5% Glycerol, 0.1% β-mercaptoethanol, 1 mg/mL BSA. Test compounds were initially dissolved in DMSO at the desired concentration, then serially diluted to the kinase assay buffer. In a final reaction volume of 25 μL, Aurora-A(h) (5-10 mU) is incubated with 8 mM MOPS pH 7.0, 0.2 mM EDTA, 200 μM LRRASLG (Kemptide), 10 mM MgAcetate and [γ^33P-ATP]. The reaction was initiated by the addition of the MgATP mix. After incubation for 40 minute at room temperature, the reaction was stopped by addition of 5 μL of a 3% phosphoric acid solution. 10 μL of the reaction was then spotted onto a P30 filtermat and washed three times for 5 minutes in 50 mM phosphoric acid and once in methanol prior to drying and scintillation counting. Wells containing substrate but no kinase and wells containing a phosphopeptide control were used to set 0% and 100% phosphorylation value, respectively.
(§2) The Kinase Hotspot℠ kinase assay was also used to test the compounds for IC50 or % inhibitions (Reaction Biology Corp.). Inhibitory IC50 values were determined by titration of compound at the optimal kinase concentration (Kinase EC50).

In a further test the target is Ret(h) (Homo sapiens, UniProt P07949). The protocol: as §1, §2
Chain of Ret(h) (P07949 29-1114): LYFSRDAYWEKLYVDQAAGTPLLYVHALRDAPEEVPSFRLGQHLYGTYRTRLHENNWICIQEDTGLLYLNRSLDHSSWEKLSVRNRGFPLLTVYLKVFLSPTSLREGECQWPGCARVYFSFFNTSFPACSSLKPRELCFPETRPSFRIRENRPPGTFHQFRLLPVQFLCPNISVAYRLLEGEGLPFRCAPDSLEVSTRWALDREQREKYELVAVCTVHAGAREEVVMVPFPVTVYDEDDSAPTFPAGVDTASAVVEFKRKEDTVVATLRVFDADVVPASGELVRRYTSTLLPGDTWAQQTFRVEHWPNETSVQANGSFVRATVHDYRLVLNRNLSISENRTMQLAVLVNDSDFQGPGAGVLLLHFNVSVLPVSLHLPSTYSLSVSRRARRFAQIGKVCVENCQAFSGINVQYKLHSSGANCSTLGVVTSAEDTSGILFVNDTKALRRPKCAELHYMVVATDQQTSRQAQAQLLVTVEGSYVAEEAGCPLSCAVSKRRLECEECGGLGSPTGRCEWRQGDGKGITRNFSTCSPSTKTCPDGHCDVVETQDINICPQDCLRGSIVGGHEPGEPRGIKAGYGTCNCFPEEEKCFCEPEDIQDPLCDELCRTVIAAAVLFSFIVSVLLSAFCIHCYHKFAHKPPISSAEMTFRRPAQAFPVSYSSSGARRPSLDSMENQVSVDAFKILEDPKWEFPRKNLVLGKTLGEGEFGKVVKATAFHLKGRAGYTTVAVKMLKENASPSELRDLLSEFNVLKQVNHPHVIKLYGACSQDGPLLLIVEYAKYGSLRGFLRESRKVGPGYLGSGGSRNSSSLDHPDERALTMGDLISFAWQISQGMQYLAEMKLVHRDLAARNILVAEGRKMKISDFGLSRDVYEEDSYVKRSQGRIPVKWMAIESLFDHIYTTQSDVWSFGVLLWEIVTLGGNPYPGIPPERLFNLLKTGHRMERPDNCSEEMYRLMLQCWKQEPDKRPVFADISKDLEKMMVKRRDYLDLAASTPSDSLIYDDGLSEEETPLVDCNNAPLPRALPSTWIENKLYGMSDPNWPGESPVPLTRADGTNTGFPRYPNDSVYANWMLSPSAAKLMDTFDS
For the next test, the target named is T2, Aurora-A(h) (Homo sapiens, UniProt O14965).
T2 sequence (O14965 1-403): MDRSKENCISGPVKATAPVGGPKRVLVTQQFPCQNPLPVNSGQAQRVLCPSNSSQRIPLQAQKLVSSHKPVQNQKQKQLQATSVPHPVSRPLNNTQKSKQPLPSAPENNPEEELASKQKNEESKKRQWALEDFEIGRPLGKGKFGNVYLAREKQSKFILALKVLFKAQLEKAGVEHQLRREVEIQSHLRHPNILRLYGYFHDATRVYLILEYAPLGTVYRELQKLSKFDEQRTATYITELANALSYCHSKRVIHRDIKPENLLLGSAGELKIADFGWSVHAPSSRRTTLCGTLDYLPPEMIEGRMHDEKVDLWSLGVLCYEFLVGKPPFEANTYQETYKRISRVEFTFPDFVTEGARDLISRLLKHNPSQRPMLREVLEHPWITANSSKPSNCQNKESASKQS
Conditions: read-out: % Inhibition @1 μM Auroro-A. As for the experimental part: as §1, §2

For the next test, the target named is cSRC(h) (Homo sapiens, UniProt P12931). As for the experimental part: as §1, §2
Chain of cSRC(h) (P12931 whole entry): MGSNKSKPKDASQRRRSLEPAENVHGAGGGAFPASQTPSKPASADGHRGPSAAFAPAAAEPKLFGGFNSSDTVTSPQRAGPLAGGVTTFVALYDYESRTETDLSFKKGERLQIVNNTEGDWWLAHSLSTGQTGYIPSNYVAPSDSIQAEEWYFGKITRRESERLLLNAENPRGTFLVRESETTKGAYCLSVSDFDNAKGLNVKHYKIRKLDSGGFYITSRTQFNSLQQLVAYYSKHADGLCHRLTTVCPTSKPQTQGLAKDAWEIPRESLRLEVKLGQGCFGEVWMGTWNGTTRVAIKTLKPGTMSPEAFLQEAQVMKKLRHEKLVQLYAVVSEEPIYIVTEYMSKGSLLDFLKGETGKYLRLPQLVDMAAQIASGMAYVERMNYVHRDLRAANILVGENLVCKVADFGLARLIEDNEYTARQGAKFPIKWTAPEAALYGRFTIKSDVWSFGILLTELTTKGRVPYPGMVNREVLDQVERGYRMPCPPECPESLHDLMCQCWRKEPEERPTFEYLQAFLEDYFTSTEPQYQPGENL

Chain of Abl(h) (P00519 whole entry): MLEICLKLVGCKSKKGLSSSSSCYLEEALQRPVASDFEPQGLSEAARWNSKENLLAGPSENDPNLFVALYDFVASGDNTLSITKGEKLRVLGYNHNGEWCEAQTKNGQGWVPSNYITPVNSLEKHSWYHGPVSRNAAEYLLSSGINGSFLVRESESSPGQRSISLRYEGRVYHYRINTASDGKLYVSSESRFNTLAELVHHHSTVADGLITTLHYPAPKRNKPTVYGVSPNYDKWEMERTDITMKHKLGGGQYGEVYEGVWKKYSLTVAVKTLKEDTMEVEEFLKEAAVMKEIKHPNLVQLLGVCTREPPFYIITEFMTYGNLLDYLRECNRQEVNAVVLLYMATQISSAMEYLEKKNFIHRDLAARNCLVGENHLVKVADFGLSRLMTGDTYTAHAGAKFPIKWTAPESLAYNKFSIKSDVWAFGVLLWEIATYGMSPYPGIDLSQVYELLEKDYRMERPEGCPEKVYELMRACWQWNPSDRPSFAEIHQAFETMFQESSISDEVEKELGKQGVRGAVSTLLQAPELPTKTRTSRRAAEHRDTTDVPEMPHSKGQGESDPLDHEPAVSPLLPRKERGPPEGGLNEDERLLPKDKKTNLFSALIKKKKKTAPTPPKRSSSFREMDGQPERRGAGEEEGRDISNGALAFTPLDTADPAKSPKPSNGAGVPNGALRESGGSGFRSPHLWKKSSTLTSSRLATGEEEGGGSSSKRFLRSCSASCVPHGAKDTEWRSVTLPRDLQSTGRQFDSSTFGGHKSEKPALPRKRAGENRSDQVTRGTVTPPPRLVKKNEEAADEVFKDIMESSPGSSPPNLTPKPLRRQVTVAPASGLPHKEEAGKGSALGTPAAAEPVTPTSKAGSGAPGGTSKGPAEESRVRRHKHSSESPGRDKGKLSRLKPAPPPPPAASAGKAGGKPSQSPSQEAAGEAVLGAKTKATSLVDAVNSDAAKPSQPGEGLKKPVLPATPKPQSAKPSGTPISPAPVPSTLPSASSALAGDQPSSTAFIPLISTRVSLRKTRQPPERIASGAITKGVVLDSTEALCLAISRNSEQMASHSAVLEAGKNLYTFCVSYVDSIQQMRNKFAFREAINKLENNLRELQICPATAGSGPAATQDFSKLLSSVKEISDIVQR
Chain of KDR(h) (P35968 20-1356): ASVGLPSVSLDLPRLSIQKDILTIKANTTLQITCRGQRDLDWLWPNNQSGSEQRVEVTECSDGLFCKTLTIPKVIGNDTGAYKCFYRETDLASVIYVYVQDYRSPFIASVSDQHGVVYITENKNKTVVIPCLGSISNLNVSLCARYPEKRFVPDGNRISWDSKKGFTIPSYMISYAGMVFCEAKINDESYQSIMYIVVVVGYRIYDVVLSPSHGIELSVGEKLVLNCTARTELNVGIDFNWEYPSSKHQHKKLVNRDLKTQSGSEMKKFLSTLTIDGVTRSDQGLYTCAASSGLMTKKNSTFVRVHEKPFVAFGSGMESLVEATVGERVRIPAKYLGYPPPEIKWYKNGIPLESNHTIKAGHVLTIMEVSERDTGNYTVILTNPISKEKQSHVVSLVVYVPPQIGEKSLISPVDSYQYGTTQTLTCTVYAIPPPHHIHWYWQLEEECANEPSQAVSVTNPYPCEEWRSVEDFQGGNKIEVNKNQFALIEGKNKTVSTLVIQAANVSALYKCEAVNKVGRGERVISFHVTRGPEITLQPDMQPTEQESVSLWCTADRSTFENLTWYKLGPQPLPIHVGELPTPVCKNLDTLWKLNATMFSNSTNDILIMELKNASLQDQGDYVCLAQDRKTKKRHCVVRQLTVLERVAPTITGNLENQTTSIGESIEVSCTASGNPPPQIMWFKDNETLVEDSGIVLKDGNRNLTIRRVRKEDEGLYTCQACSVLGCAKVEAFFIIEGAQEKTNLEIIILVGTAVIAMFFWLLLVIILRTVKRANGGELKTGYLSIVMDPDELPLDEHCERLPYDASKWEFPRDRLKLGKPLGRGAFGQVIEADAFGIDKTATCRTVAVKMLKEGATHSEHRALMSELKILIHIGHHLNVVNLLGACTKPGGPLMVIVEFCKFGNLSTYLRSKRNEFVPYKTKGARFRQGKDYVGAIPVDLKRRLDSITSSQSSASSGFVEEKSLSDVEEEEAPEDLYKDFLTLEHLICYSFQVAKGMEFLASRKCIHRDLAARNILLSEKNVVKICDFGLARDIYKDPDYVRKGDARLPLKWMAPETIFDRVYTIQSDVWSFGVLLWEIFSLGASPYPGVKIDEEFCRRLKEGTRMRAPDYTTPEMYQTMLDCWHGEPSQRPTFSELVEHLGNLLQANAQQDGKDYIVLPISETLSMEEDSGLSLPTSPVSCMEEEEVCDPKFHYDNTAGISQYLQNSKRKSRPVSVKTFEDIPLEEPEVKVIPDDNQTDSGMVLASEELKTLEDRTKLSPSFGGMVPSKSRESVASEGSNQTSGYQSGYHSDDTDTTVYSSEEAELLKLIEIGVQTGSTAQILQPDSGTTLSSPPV

As a reminder, the inhibition is the drop in the measured response relative to a control, in per cent. For `Cc1cc2c(F)c(Oc3nc(Nc4cc(C5CC5)[nH]n4)cc(N4CCOC(CN)C4)n3)ccc2[nH]1` (stereo not drawn) [Compound 39], the inhibition at 1 µM is 95% on KDR(h); 110% against Abl(h); 98% on Flt3(h); 101% at Ret(h); 98% on Aurora-A(h); 97% on cSRC(h).
Turning to `CCC1CN(c2cc(Nc3cc(C4CC4)[nH]n3)nc(Oc3ccc4[nH]c(C)cc4c3F)n2)CCN1` (stereo not drawn) [Compound 41], the inhibition at 1 µM against KDR(h) was determined as 94%; against Abl(h), 108%; at Flt3(h), 99%; against Ret(h), 101%; on Aurora-A(h) it was 87%; against cSRC(h) it was 97%.
For the compound `Cc1cc2c(F)c(Oc3nc(Nc4cc(C5CC5)[nH]n4)cc(N4CCN(CCN(C)C)CC4)n3)ccc2[nH]1` [Compound 42], the inhibition at 1 µM on KDR(h) was 96%; against Abl(h), 110%; on Flt3(h), 100%; against Ret(h), 102%; at Aurora-A(h) it was 93%; against cSRC(h), 101%.
`Cc1cc2c(F)c(Oc3nc(Nc4cc(C5CC5)[nH]n4)cc(N4CCNC(CO)C4)n3)ccc2[nH]1` (stereo not drawn) [Compound 43]: the inhibition at 1 µM against KDR(h) was found to be 95%; against Abl(h) it was 111%; at Flt3(h), 99%; against Ret(h) it was 102%; on Aurora-A(h) it was 87%; on cSRC(h), 101%.
`COCC1CCN(c2cc(Nc3cc(C4CC4)[nH]n3)nc(Oc3ccc4[nH]c(C)cc4c3F)n2)C1` (stereo not drawn) [Compound 44]: the inhibition at 1 µM on KDR(h) was 90%; at Abl(h), 94%; on Flt3(h), 100%; at Ret(h), 100%; at Aurora-A(h) it was 97%; on cSRC(h), 102%.
Turning to `Cc1cc2c(F)c(Oc3nc(Nc4cc(C5CC5)[nH]n4)cc(N4CCN(CCF)CC4)n3)ccc2[nH]1` [Compound 45], the inhibition at 1 µM on KDR(h) came out at 95%; on Abl(h), 107%; against Flt3(h), 101%; against Ret(h), 102%; at Aurora-A(h), 99%; at cSRC(h), 107%.
Take `C/C=C/c1cc(Nc2cc(N3CCN(CCOC)CC3)nc(Oc3ccc4[nH]c(C)cc4c3F)n2)n[nH]1` [Compound 54]: the inhibition at 1 µM stood at 96% at KDR(h); 108% at Abl(h); 99% against Flt3(h); 100% on Ret(h); 85% at Aurora-A(h); 99% at cSRC(h).
In the case of `C/C=C/c1cc(Nc2cc(N3CCN(S(C)(=O)=O)CC3)nc(Oc3ccc4[nH]c(C)cc4c3F)n2)n[nH]1` [Compound 55], the inhibition at 1 µM turned out to be 96% against KDR(h); 110% at Abl(h); 99% on Flt3(h); 101% against Ret(h); 101% on Aurora-A(h); 101% against cSRC(h).
As for `C/C=C/c1cc(Nc2cc(N3CCN(C(C)=O)CC3)nc(Oc3ccc4[nH]c(C)cc4c3F)n2)n[nH]1` [Compound 56], the inhibition at 1 µM against KDR(h) stood at 96%; at Abl(h), 111%; against Flt3(h), 99%; against Ret(h) it was 101%; on Aurora-A(h), 99%; on cSRC(h), 100%.
As to `C/C=C/c1cc(Nc2cc(N3CCS(=O)(=O)CC3)nc(Oc3ccc4[nH]c(C)cc4c3F)n2)n[nH]1` [Compound 57], the inhibition at 1 µM on KDR(h) worked out at 95%; on Abl(h) it was 111%; against Flt3(h), 100%; at Ret(h) it was 102%; on Aurora-A(h), 96%; against cSRC(h), 99%.
`C/C=C/c1cc(Nc2cc(N3CCC(OC)CC3)nc(Oc3ccc4[nH]c(C)cc4c3F)n2)n[nH]1` [Compound 58]: the inhibition at 1 µM at KDR(h) is 96%; against Abl(h), 112%; against Flt3(h), 99%; on Ret(h) it was 102%; on Aurora-A(h) it was 90%; at cSRC(h) it was 101%.
As to `C/C=C/c1cc(Nc2cc(N3CCC(O)CC3)nc(Oc3ccc4[nH]c(C)cc4c3F)n2)n[nH]1` [Compound 59], the inhibition at 1 µM was determined as 96% against KDR(h); 112% against Abl(h); 99% on Flt3(h); 102% on Ret(h); 94% on Aurora-A(h); 100% against cSRC(h).
Regarding `C/C=C/c1cc(Nc2cc(N3CCC(OC)C3)nc(Oc3ccc4[nH]c(C)cc4c3F)n2)n[nH]1` (stereo not drawn) [Compound 60], the inhibition at 1 µM was 95% against KDR(h); 111% on Abl(h); 99% on Flt3(h); 102% on Ret(h); 97% at Aurora-A(h); 101% at cSRC(h).
With `C/C=C/c1cc(Nc2cc(N3CCC(O)C3)nc(Oc3ccc4[nH]c(C)cc4c3F)n2)n[nH]1` (stereo not drawn) [Compound 61], the inhibition at 1 µM on KDR(h) was determined as 97%; against Abl(h) it was 112%; against Flt3(h), 100%; against Ret(h), 102%; at Aurora-A(h) it was 95%; on cSRC(h) it was 100%.
With `C/C=C/c1cc(Nc2cc(N3CCC(N(CC)CC)C3)nc(Oc3ccc4[nH]c(C)cc4c3F)n2)n[nH]1` (stereo not drawn) [Compound 62], the inhibition at 1 µM on KDR(h) was 96%; on Abl(h) it was 111%; on Flt3(h), 99%; against Ret(h) it was 102%; at Aurora-A(h), 102%; against cSRC(h) it was 101%.
As for `C/C=C/c1cc(Nc2cc(N3CCOCC3)nc(Oc3ccc4[nH]c(C)cc4c3F)n2)n[nH]1` [Compound 67], the inhibition at 1 µM on KDR(h) was 91%; on Abl(h), 112%; at Flt3(h) it was 100%; at Ret(h), 100%; at Aurora-A(h) it was 99%; on cSRC(h), 99%.
In the case of `C/C=C/c1cc(Nc2cc(N3CCN(CCF)CC3)nc(Oc3ccc4[nH]c(C)cc4c3F)n2)n[nH]1` [Compound 74], the inhibition at 1 µM against KDR(h) amounted to 96%; at Abl(h), 111%; on Flt3(h), 100%; against Ret(h) it was 102%; on Aurora-A(h), 99%; against cSRC(h) it was 100%.
